Patent US20240158370A1, “CK1 alpha AND DUAL CK1 alpha / GSPT1 DEGRADING COMPOUNDS” (Innovo Therapeutics, Inc., priority 2022, published 2024)

Assays:
[1] = molecular target: GSPT1 (Homo sapiens, UniProt P15170+Q96SW2); assay: HiBiT degradation assay, GSPT1, Procedure A; assay type: cell-based; parameters: HiBit-GSPT1 KI HEK293(LgBit) Cells; host or cells: HEK293(LgBit) knock-in cells
Procedure, shortened: (§1)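 Luminescence from HiBiT lytic detection, read after 20 min shaking, gave DC50 and Ymin by 4-parameter fit. Before that, cells (1×10^6 cells/ml, DMEM+10% FBS) sat 6 h at 37° C on 10-point compound series (10 μM–0.005 μM, 0.1% DMSO).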

[2] = molecular target: T1, CK1α (Homo sapiens, UniProt P48729+Q96SW2); assay: HiBiT degradation assay, CK1α, Procedure A; assay type: cell-based
T1 construct: CSNK1A1-HiBit KI HEK293(LgBit) Cells; host or cells: HEK293(LgBit) knock-in cells
Procedure, shortened: as §1

Sequence of GSPT1 (P15170 whole entry): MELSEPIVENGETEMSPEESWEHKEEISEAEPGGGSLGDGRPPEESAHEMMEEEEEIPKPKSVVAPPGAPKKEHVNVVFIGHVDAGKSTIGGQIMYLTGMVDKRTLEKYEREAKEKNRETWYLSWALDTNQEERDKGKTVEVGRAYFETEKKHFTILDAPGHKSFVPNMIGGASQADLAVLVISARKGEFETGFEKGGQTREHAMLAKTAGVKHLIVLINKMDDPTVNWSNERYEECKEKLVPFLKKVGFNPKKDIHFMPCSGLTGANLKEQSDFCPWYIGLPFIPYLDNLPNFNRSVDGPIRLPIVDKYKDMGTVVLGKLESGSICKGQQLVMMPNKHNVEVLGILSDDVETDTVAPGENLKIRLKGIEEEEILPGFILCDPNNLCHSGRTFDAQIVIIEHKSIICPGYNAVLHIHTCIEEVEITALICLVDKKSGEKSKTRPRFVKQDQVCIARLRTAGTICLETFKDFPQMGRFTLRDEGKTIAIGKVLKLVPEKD
Sequence of GSPT1 (Q96SW2 whole entry): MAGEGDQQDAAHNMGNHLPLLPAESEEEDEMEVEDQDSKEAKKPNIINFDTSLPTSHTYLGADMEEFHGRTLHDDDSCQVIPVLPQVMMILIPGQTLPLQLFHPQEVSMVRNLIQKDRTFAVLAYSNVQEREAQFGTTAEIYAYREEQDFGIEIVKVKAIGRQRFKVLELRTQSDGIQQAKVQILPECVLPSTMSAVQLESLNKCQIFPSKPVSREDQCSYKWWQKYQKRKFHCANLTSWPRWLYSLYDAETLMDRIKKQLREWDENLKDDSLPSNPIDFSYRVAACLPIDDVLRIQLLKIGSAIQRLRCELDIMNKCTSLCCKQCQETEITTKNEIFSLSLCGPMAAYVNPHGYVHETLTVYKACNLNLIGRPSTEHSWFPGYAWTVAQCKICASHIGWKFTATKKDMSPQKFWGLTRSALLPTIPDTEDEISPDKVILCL
Sequence of GSPT1 (Q16531 whole entry partner): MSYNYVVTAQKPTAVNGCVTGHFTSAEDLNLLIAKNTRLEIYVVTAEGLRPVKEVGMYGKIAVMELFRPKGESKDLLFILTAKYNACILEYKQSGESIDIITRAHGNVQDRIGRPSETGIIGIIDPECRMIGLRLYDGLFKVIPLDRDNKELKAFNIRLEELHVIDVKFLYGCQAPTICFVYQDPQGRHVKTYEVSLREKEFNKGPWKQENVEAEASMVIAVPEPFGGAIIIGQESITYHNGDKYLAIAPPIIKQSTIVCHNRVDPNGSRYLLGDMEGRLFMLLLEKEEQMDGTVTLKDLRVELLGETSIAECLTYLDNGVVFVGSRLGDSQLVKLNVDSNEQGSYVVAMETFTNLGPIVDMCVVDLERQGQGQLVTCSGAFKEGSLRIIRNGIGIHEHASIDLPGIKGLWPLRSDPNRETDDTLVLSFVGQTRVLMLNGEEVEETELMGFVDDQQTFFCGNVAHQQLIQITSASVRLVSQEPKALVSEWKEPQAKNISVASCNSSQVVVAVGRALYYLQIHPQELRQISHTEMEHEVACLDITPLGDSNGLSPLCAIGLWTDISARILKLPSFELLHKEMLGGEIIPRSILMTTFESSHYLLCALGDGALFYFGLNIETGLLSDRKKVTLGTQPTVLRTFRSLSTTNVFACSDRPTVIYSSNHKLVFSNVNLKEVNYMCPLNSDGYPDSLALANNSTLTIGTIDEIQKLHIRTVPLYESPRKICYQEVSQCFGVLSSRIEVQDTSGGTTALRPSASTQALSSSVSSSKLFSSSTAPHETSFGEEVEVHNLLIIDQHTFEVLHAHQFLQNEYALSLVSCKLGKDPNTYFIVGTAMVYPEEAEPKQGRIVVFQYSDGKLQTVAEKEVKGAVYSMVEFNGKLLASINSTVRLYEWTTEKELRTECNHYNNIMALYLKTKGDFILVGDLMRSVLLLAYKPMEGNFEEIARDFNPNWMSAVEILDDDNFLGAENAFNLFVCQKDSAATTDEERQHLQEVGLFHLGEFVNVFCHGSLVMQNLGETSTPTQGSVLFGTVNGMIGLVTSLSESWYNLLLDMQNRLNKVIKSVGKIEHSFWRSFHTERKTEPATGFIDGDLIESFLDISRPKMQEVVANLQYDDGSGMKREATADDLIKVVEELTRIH
T1 sequence (P48729 whole entry): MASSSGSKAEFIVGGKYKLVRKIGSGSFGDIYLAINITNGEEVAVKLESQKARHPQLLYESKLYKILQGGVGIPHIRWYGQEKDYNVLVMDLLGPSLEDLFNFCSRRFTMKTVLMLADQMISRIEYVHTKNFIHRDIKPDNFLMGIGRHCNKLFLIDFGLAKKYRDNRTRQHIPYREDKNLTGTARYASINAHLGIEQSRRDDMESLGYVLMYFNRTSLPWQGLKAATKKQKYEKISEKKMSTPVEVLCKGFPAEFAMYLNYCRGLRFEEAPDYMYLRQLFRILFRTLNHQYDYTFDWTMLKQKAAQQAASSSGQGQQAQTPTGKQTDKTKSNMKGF
T1 sequence (Q96SW2 whole entry): as the sequence (Q96SW2 whole entry) above
T1 sequence (Q16531 whole entry partner): as the sequence (Q16531 whole entry partner) above

| DC50 ([1]; six hours) | GSPT1 Ymin ([1]; six hours) | CK1α Ymin ([2]; six hours) | DC50 ([2]; six hours) | DC50 ([1]; six hours incubation) | GSPT1 Ymin ([1]; six hours incubation) | CK1α Ymin ([2]; six hours incubation) | DC50 ([2]; six hours incubation) | SMILES |
| --- | --- | --- | --- | --- | --- | --- | --- | --- |
| < 25 nM | F (F = >75-100% remaining) | D (D = >10- 25% remaining) | < 25 nM |  |  |  |  | COc1cncc(-c2c(-c3ccc4c(c3)CN(C3CCC(=O)NC3=O)C4=O)ncn2C)c1 (stereo not drawn) [Example 486] |
| ≥ 25 nM | F (F = >75-100% remaining) | D (D = >10- 25% remaining) | < 25 nM |  |  |  |  | Cn1nc(-c2ccc3c(c2)CN(C2CCC(=O)NC2=O)C3=O)nc1N1CCC(C)(C)CC1 (stereo not drawn) [Example 612, 3-(5-(5-(4,4-dimethylpiperidin-1-yl)-1-methyl-1H-1,2,4-triazol-3-yl)-1-oxoisoindolin-2-yl)piperidine-2,6-dione] |
| ≥ 25 nM | F (F = >75-100% remaining) | D (D = >10- 25% remaining) | < 25 nM |  |  |  |  | O=C1CCC(N2Cc3cc(-c4cnn(C(F)F)c4-c4ccc5c(c4)CCO5)ccc3C2=O)C(=O)N1 (stereo not drawn) [Example 424, 3-(5-(1-(difluoromethyl)-5-(2,3-dihydrobenzofuran-5-yl)-1H-pyrazol-4-yl)-1-oxoisoindolin-2-yl)piperidine-2,6-dione] |
|  |  |  |  | ≥ 25 nM | E (E = >25-75% remaining) | C (C = 0-10% remaining) | < 25 nM | Cn1cnc(-c2ccc3c(c2)CN([C@@H]2CCC(=O)NC2=O)C3=O)c1-c1ccc(F)cc1 [Example 24, (R)-3-(5-(5-(4-fluorophenyl)-1-methyl-1H-imidazol-4-yl)-1-oxoisoindolin-2-yl) piperidine-2,6-dione] |
|  |  |  |  | ≥ 25 nM | F (F = >75-100% remaining) | E (E = >25-75% remaining) | ≥ 25 nM | Cc1nn(C)cc1-c1c(-c2ccc3c(c2)CN(C2CCC(=O)NC2=O)C3=O)ncn1C (stereo not drawn) [Example 323] |
| ≥ 25 nM | F (F = >75-100% remaining) | D (D = >10- 25% remaining) | < 25 nM |  |  |  |  | Cn1ncc(-c2ccc3c(c2)CN(C2CCC(=O)NC2=O)C3=O)c1-c1ccc2occc2c1 (stereo not drawn) [Example 381] |
|  |  |  |  | ≥ 25 nM | F (F = >75-100% remaining) | E (E = >25-75% remaining) | ≥ 25 nM | Cc1cc(-c2c(-c3ccc4c(c3)CN(C3CCC(=O)NC3=O)C4=O)ncn2C)n(C)n1 (stereo not drawn) [Example 324] |
| ≥ 25 nM | E (E = >25-75% remaining) | D (D = >10- 25% remaining) | ≥ 25 nM |  |  |  |  | Cn1cnc(-c2ccc3c(c2)CN(C2CCC(=O)NC2=O)C3=O)c1-c1ccc2nccn2c1 (stereo not drawn) [Example 528] |
|  |  |  |  | ≥ 25 nM | F (F = >75-100% remaining) | E (E = >25-75% remaining) | ≥ 25 nM | Cn1ncc(-c2ccc3c(c2)CN(C2CCC(=O)NC2=O)C3=O)c1-c1ccc(NC(=O)c2ccccc2)cc1 (stereo not drawn) [Example 100] |
|  |  |  |  | ≥ 25 nM | F (F = >75-100% remaining) | E (E = >25-75% remaining) | < 25 nM | Cc1ccc(Cl)c(-c2c(-c3ccc4c(c3)CN(C3CCC(=O)NC3=O)C4=O)cnn2C)c1 (stereo not drawn) [Example 86] |
| < 25 nM | E (E = >25-75% remaining) | F (F = >75-100% remaining) | < 25 nM |  |  |  |  | Cn1ncc(-c2ccc3c(c2)CN(C2CCC(=O)NC2=O)C3=O)c1-c1cnn(-c2ccccc2)c1 (stereo not drawn) [Example 395] |
| ≥ 25 nM | F (F = >75-100% remaining) | E (E = >25-75% remaining) | < 25 nM |  |  |  |  | Cn1nc(-c2ccc3c(c2)CN(C2CCC(=O)NC2=O)C3=O)nc1N1Cc2ccccc2C1 (stereo not drawn) [Example 609, 3-(5-(5-(isoindolin-2-yl)-1-methyl-1H-1,2,4-triazol-3-yl)-1-oxoisoindolin-2-yl)piperidine-2,6-dione] |
|  |  |  |  | ≥ 25 nM | F (F = >75-100% remaining) | D (D = >10- 25% remaining) | < 25 nM | Cn1cnc(-c2ccc3c(c2)CN(C2CCC(=O)NC2=O)C3=O)c1-c1ccc(N2CCOCC2)c(Cl)c1 (stereo not drawn) [Example 315] |
| ≥ 25 nM | E (E = >25-75% remaining) | C (C = 0-10% remaining) | < 25 nM |  |  |  |  | COc1ccc(-c2c(-c3ccc4c(c3)CN(C3CCC(=O)NC3=O)C4=O)cnn2C(F)F)cc1 (stereo not drawn) [Example 418, 3-(5-(1-(difluoromethyl)-5-(4-methoxyphenyl)-1H-pyrazol-4-yl)-1-oxoisoindolin-2-yl)piperidine-2,6-dione] |
| < 25 nM | E (E = >25-75% remaining) | D (D = >10- 25% remaining) | < 25 nM |  |  |  |  | Cn1cnc(-c2ccc3c(c2)CN(C2CCC(=O)NC2=O)C3=O)c1-c1cccnc1 (stereo not drawn) [Example 482] |
|  |  |  |  | ≥ 25 nM | E (E = >25-75% remaining) | D (D = >10- 25% remaining) | < 25 nM | COc1ccc(-c2c(-c3ccc4c(c3)CN(C3CCC(=O)NC3=O)C4=O)cnn2C)cc1Cl (stereo not drawn) [Example 146] |
|  |  |  |  | < 25 nM | E (E = >25-75% remaining) | C (C = 0-10% remaining) | < 25 nM | Cn1cnc(-c2ccc3c(c2)CN(C2CCC(=O)NC2=O)C3=O)c1-c1ccc2ccccc2c1 (stereo not drawn) [Example 256] |
| < 25 nM | F (F = >75-100% remaining) | C (C = 0-10% remaining) | < 25 nM |  |  |  |  | Cc1cc(F)ccc1-c1nc(-c2ccc3c(c2)CN(C2CCC(=O)NC2=O)C3=O)cn1C (stereo not drawn) [Example 560] |
| ≥ 25 nM | F (F = >75-100% remaining) | C (C = 0-10% remaining) | < 25 nM |  |  |  |  | Cn1ncc(-c2ccc3c(c2)CN(C2CCC(=O)NC2=O)C3=O)c1-c1cccs1 (stereo not drawn) [Example 471] |
|  |  |  |  | ≥ 25 nM | F (F = >75-100% remaining) | E (E = >25-75% remaining) | < 25 nM | Cc1cc(Cl)cc(-c2c(-c3ccc4c(c3)CN(C3CCC(=O)NC3=O)C4=O)ncn2C)c1 (stereo not drawn) [Example 201] |
| ≥ 25 nM | F (F = >75-100% remaining) | D (D = >10- 25% remaining) | ≥ 25 nM |  |  |  |  | Cn1cnc(-c2ccc3c(c2)CN(C2CCC(=O)NC2=O)C3=O)c1-c1cnn(CC(F)F)c1 (stereo not drawn) [Example 497] |
|  |  |  |  | ≥ 25 nM | E (E = >25-75% remaining) | D (D = >10- 25% remaining) | < 25 nM | O=C1CCC(N2Cc3cc(-c4ncsc4-c4ccccc4)ccc3C2=O)C(=O)N1 (stereo not drawn) [Example 23, 3-(1-Oxo-5-(5-phenylthiazol-4-yl)isoindolin-2-yl) piperidine-2,6-dione] |
| ≥ 25 nM | F (F = >75-100% remaining) | C (C = 0-10% remaining) | < 25 nM |  |  |  |  | [2H]C([2H])([2H])n1ncc(-c2ccc3c(c2)CN(C2CCC(=O)NC2=O)C3=O)c1-c1ccc(OC)cc1Cl (stereo not drawn) [Example 434, 3-(5-(5-(2-chloro-4-methoxyphenyl)-1-(methyl-d3)-1H-pyrazol-4-yl)-1-oxoisoindolin-2-yl)piperidine-2,6-dione] |
|  |  |  |  | ≥ 25 nM | F (F = >75-100% remaining) | D (D = >10- 25% remaining) | < 25 nM | Cn1ncc(-c2ccc3c(c2)CN(C2CCC(=O)NC2=O)C3=O)c1-c1ccc(N2CCOCC2)cc1 (stereo not drawn) [Example 62] |
|  |  |  |  | < 25 nM | F (F = >75-100% remaining) | E (E = >25-75% remaining) | < 25 nM | Cn1cnc(-c2ccc3c(c2)CN(C2CCC(=O)NC2=O)C3=O)c1-c1ccc(S(=O)(=O)N2CCCC2)cc1 (stereo not drawn) [Example 354] |
|  |  |  |  | < 25 nM | E (E = >25-75% remaining) | C (C = 0-10% remaining) | < 25 nM | O=C1CCC(N2Cc3cc(-c4ncoc4-c4ccccc4)ccc3C2=O)C(=O)N1 (stereo not drawn) [Example 15, 3-(1-oxo-5-(5-phenyloxazol-4-yl)isoindolin-2-yl)piperidine-2,6-dione] |
|  |  |  |  | ≥ 25 nM | F (F = >75-100% remaining) | E (E = >25-75% remaining) | < 25 nM | Cn1ncc(-c2ccc3c(c2)CN(C2CCC(=O)NC2=O)C3=O)c1-c1cccc(Cl)c1 (stereo not drawn) [Example 173] |
